Assay results taken from publication doi:10.1101/2023.03.24.534094v2 (biorxiv, 2023).
Read-outs that look alike come from different tables or passages of the source.

Assays:
Assay in all cases: biochemical
[1] = molecular target: CaMK2b (Homo sapiens, UniProt Q13554)
[2] = molecular target: DYRK1A (Homo sapiens, UniProt Q13627)
[3] = molecular target: FLT1 (Homo sapiens, UniProt P17948)
[4] = molecular target: T1, MER (Homo sapiens, UniProt Q12866)
T1 sequence (Q12866 1-999): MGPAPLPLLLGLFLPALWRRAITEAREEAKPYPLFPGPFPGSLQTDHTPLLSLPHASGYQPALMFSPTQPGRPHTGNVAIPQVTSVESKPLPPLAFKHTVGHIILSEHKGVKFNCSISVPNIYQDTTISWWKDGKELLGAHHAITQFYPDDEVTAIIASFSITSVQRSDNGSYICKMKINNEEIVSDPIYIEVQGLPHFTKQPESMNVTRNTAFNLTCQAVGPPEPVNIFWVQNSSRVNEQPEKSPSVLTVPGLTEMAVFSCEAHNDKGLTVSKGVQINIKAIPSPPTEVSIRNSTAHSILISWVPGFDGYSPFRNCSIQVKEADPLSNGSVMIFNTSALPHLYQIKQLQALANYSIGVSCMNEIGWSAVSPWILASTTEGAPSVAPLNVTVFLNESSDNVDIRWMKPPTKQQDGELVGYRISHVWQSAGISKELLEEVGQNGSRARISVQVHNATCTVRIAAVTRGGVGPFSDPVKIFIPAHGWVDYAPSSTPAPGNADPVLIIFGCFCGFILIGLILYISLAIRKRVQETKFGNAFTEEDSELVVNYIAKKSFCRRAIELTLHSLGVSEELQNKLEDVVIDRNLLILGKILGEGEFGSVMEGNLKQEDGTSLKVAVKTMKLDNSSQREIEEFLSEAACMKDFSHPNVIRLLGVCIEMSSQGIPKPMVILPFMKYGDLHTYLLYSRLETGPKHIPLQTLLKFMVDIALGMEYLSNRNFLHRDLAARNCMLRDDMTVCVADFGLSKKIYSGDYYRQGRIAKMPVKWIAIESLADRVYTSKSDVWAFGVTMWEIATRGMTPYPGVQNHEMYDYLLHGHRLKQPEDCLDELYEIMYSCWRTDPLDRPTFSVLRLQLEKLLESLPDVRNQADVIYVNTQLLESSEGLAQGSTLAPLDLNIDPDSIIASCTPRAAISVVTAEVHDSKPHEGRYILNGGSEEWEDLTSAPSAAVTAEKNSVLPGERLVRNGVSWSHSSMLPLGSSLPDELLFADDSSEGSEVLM

[5] = molecular target: MRCKa (Homo sapiens, UniProt Q5VT25)
[6] = molecular target: T2, NEK1 (Homo sapiens, UniProt Q96PY6)
T2 sequence (Q96PY6 1-1258): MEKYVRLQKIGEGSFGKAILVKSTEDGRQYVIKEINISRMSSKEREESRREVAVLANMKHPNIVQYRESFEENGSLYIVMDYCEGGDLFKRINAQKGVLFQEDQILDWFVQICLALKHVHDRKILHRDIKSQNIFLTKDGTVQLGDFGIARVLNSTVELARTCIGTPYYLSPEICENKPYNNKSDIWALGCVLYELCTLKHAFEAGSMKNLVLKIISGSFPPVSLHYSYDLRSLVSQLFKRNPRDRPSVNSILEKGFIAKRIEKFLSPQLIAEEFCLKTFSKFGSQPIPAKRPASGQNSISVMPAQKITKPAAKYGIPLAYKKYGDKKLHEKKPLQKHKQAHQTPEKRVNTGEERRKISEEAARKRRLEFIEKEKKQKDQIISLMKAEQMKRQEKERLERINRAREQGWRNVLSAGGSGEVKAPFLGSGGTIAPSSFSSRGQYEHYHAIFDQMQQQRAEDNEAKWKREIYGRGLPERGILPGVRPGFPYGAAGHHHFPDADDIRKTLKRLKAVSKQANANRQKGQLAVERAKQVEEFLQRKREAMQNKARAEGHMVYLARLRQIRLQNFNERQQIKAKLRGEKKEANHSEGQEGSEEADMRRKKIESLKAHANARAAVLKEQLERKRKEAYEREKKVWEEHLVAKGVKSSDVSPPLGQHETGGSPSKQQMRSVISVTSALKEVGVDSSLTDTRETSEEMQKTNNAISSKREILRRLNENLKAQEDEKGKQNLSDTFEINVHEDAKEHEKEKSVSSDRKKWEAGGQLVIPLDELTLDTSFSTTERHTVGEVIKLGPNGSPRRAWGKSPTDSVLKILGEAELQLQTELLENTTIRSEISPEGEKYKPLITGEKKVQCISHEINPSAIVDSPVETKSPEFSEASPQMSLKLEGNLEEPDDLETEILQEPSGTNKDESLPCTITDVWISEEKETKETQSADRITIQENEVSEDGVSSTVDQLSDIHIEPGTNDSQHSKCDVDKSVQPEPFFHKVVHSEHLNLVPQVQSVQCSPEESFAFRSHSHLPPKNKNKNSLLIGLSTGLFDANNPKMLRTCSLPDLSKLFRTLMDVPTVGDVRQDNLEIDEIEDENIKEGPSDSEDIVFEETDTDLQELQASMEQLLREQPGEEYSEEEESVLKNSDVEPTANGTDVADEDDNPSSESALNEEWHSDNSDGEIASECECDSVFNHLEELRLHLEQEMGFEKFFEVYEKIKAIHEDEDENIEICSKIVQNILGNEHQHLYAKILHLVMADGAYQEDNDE

[7] = molecular target: SLK (Homo sapiens, UniProt Q9H2G2)
[8] = molecular target: SRC (Homo sapiens, UniProt P12931)
Sequence of SRC (P12931 whole entry): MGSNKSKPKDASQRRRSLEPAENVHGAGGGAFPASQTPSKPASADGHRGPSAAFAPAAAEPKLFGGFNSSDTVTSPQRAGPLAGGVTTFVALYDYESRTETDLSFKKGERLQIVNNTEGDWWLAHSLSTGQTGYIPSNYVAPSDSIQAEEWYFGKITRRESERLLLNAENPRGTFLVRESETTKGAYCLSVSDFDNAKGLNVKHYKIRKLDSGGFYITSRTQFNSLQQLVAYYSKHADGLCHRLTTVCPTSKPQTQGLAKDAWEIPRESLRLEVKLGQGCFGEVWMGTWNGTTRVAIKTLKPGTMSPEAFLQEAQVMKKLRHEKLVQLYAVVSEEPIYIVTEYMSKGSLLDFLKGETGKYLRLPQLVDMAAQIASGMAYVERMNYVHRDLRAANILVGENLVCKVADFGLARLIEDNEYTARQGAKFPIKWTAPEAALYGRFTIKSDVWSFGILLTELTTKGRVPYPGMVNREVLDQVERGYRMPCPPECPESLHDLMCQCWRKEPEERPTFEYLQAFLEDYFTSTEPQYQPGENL

Sequence of MRCKa (Q5VT25 whole entry): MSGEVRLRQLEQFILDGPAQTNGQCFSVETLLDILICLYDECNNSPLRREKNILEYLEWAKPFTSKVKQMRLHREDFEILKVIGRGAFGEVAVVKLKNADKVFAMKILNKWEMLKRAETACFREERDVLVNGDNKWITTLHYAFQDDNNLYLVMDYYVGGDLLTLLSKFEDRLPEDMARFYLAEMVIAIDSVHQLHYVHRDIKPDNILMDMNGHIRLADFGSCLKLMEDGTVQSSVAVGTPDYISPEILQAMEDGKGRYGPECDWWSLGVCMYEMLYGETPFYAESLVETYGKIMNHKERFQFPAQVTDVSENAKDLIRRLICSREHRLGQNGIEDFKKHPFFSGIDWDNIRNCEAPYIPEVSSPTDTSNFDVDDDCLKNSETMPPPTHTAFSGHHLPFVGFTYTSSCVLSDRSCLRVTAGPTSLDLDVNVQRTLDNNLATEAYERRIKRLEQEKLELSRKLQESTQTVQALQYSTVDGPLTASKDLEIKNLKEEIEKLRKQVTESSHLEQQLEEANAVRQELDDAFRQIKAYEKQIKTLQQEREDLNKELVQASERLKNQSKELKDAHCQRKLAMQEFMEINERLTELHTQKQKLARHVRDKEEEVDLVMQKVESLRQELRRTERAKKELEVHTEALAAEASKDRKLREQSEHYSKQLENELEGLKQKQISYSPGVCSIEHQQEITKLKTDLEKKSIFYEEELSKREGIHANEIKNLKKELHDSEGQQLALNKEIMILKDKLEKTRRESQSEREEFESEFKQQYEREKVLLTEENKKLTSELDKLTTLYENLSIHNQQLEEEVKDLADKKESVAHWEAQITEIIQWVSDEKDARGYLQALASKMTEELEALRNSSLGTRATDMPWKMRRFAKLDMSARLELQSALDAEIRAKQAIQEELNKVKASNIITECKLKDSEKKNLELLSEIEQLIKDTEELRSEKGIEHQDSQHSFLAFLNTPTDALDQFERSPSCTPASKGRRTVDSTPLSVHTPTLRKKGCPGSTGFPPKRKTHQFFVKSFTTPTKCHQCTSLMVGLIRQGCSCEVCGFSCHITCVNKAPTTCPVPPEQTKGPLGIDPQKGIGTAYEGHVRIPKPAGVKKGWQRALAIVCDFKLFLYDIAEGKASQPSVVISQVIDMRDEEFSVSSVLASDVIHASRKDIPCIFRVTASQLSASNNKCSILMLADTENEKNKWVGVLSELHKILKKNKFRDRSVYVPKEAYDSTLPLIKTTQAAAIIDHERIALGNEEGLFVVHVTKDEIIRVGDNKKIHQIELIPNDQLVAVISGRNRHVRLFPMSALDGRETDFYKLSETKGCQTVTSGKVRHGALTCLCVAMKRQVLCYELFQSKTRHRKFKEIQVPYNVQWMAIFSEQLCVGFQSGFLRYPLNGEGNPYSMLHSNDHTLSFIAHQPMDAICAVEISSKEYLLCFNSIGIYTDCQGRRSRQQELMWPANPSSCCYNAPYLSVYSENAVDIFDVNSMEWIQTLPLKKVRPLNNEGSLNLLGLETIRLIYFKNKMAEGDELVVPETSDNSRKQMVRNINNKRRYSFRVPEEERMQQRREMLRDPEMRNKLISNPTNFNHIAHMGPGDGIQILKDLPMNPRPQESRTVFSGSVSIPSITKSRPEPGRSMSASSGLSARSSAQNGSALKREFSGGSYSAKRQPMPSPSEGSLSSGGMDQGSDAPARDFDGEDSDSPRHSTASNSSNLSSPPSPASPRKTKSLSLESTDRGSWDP
Sequence of CaMK2b (Q13554 whole entry): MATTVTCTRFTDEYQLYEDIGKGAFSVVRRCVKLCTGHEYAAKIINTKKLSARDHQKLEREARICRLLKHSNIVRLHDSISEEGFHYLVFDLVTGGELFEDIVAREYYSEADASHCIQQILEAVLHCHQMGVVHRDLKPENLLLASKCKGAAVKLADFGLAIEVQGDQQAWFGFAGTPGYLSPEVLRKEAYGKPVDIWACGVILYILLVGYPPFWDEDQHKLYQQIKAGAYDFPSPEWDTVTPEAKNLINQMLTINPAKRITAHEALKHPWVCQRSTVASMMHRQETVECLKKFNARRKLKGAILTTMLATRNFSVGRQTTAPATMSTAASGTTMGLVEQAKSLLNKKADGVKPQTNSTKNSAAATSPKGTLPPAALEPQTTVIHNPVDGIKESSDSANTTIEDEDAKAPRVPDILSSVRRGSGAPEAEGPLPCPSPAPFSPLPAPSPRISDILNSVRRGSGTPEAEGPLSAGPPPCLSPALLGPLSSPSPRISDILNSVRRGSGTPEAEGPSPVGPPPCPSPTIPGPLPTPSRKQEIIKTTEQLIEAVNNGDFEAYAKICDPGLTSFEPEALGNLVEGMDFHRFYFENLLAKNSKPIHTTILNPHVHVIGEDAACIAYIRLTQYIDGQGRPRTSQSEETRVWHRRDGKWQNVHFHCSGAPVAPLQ
Sequence of FLT1 (P17948 whole entry): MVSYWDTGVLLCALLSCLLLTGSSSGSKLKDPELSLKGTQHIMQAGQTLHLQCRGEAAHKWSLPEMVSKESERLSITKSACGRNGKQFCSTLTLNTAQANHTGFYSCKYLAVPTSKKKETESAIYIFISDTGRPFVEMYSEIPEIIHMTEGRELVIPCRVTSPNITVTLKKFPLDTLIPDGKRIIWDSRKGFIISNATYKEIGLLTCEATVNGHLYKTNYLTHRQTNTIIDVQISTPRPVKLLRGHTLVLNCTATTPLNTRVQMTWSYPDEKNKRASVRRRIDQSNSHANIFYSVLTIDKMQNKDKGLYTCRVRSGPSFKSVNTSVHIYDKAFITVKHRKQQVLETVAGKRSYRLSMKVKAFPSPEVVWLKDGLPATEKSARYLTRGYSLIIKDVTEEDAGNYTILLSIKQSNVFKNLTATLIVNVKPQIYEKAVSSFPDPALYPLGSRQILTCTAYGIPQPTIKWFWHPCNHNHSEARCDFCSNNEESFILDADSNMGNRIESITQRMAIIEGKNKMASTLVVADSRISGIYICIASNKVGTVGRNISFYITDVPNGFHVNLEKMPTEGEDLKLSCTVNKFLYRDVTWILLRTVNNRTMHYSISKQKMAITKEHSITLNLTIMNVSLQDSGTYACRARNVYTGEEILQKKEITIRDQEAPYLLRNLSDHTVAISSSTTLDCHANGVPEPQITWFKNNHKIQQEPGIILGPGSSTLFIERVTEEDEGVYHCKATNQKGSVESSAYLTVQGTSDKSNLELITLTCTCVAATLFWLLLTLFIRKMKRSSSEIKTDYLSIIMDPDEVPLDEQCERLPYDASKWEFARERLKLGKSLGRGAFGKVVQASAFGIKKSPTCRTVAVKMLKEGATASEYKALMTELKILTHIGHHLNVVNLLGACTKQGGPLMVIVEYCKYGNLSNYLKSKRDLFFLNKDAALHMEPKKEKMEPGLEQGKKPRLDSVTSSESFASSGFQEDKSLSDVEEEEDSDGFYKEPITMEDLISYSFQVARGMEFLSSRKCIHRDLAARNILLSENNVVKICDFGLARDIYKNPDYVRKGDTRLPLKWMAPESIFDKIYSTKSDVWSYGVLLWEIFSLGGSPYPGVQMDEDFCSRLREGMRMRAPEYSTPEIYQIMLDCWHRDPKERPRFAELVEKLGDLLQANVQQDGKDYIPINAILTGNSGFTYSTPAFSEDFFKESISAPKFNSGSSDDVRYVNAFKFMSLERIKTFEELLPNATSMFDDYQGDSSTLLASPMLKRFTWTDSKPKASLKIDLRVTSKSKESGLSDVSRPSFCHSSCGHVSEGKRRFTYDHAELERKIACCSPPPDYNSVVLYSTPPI

CNc1ncc2cc(-c3ccc(-c4cccc(C)n4)cc3Cl)c(=O)n(CC3OCC(N)CO3)c2n1 (centres unmarked) [compound 2, G-5555]
dTm G-5555 (2) ([1]; 10 µM, binder): -1.7 °C
dTm G-5555 (2) ([2]; 10 µM, binder): -1.0 °C
dTm G-5555 (2) ([3]; 10 µM, binder): 1.7 °C
dTm G-5555 (2) ([4]; 10 µM, binder): 0.8 °C
dTm G-5555 (2) ([5]; 10 µM, binder): 0.9 °C
dTm G-5555 (2) ([6]; 10 µM, binder): -2.2 °C
dTm G-5555 (2) ([7]; 10 µM, binder): 7.2 °C
dTm G-5555 (2) ([8]; 10 µM, binder): -0.2 °C

CNc1ncc2cc(-c3cc(Br)ccc3Cl)c(=O)n(CCCCN)c2n1 [compound 6, 8-(4-Aminobutyl)-6-(5-bromo-2-chlorophenyl)-2-(methylamino)pyrido[2,3-d]pyrimidin-7(8H)-one]
ΔTm at 10 µM ([1]; read-out: dTm 6): 0.1 °C
ΔTm at 10 µM ([2]; read-out: dTm 6): 0 °C
ΔTm at 10 µM ([3]; read-out: dTm 6): 6 °C
ΔTm at 10 µM ([4]; read-out: dTm 6): 0.1 °C
ΔTm at 10 µM ([5]; read-out: dTm 6): 0.5 °C
ΔTm at 10 µM ([6]; read-out: dTm 6): -0.3 °C
ΔTm at 10 µM ([8]; read-out: dTm 6): 0.2 °C

CNc1ncc2cc(-c3cc(F)ccc3F)c(=O)n(CCCCN)c2n1 [compound 5, 8-(4-Aminobutyl)-6-(2,5-difluorophenyl)-2-(methylamino)pyrido[2,3-d]pyrimidin-7(8H)-one]
ΔTm at 10 µM ([1]; read-out: dTm MR22 (5)): -0.6 °C
ΔTm at 10 µM ([2]; read-out: dTm MR22 (5)): 0 °C
ΔTm at 10 µM ([3]; read-out: dTm MR22 (5)): 4.6 °C
ΔTm at 10 µM ([4]; read-out: dTm MR22 (5)): -0.8 °C
ΔTm at 10 µM ([5]; read-out: dTm MR22 (5)): -0.5 °C
ΔTm at 10 µM ([6]; read-out: dTm MR22 (5)): 0 °C
ΔTm at 10 µM ([7]; read-out: dTm MR22 (5)): -0.6 °C
ΔTm at 10 µM ([8]; read-out: dTm MR22 (5)): 0.7 °C

CNc1ncc2cc(-c3ccccc3Cl)c(=O)n(CCCCN)c2n1 [compound 4, 8-(4-Aminobutyl)-6-(2-chlorophenyl)-2-(methylamino)pyrido[2,3-d]pyrimidin-7(8H)-one]
ΔTm at 10 µM ([1]; read-out: dTm MR21 (4)): -1.1 °C
ΔTm at 10 µM ([2]; read-out: dTm MR21 (4)): 1.4 °C
ΔTm at 10 µM ([3]; read-out: dTm MR21 (4)): 5.4 °C
ΔTm at 10 µM ([4]; read-out: dTm MR21 (4)): 2.8 °C
ΔTm at 10 µM ([5]; read-out: dTm MR21 (4)): 0.2 °C
ΔTm at 10 µM ([6]; read-out: dTm MR21 (4)): 0.1 °C
ΔTm at 10 µM ([7]; read-out: dTm MR21 (4)): 1.6 °C
ΔTm at 10 µM ([8]; read-out: dTm MR21 (4)): 2.6 °C

CNc1ncc2cc(-c3cc(Br)ccc3Cl)c(=O)n(C[C@H]3OC[C@H](N)CO3)c2n1 [compound 7, 8-(((2r,5r)-5-Amino-1,3-dioxan-2-yl)methyl)-6-(5-bromo-2-chlorophenyl)-2-(methylamino)pyrido[2,3-d]pyrimidin-7(8H)-one]
ΔTm at 10 µM ([1]; read-out: dTm 7): 0.2 °C
ΔTm at 10 µM ([2]; read-out: dTm 7): -0.6 °C
ΔTm at 10 µM ([3]; read-out: dTm 7): 5.4 °C
ΔTm at 10 µM ([4]; read-out: dTm 7): 0.2 °C
ΔTm at 10 µM ([5]; read-out: dTm 7): 0.1 °C
ΔTm at 10 µM ([6]; read-out: dTm 7): 0.1 °C
ΔTm at 10 µM ([8]; read-out: dTm 7): 0.1 °C
